From patent US20160264593A1 (priority 2013, published 2016)
Like-named read-outs stand apart in the source and are kept apart here.

Assay: Pharmacokinetic study of 157 (and metabolite endothal) in SD rats, iv and po; plasma, liver, brain
Format: in vivo
Conditions: for Tmax: read-out: Tmax; for MRT last: read-out: MRT (0-t); for half-life: read-out: T1/2 (converted); for concentration at 2 h / 157 brain concentration: 2 hr
Protocol: The blood, liver and brain tissue samples were collected at predetermined times from rats. […] Compound were diluted shortly before use in 4% sodium bicarbonate for sterile injection (this is the standard pediatric solution of NaHCO3 with a pH of about 8.5).
Compound 153 was freshly prepared by diluting the drugs shortly before use in 4% sodium bicarbonate for sterile injection (this is the standard pediatric solution of NaHCO3 with a pH of about 8.5). The final concentrations of 153 solutions were 0.25 mg/mL. The 153 solutions were administered via iv or po route at dose volume of 5 ml/kg according to the latest body weight. Compound 157 was freshly prepared by diluting the drugs shortly before use in 4% sodium bicarbonate for sterile injection (this is the standard pediatric solution of NaHCO3 with a pH of about 8.5). The final concentrations of […] solutions were 0.3 mg/mL. The 157 solutions were administered via iv or po route at dose volume of 5 ml/kg according to the latest body weight.
Twelve (12) female SD rats per group were dosed by iv with 153 or 157. The rats were fasted overnight prior to dosing, with free access to water. Foods were withheld for 2 hours post-dose. Blood, liver and brain tissue samples in two animals each group were collected at each time point, within 10% of the scheduled time for each time point. Two extra animals were used for analytic method development.
Blood (>0.3 mL) were collected via aorta abdominalis in anaesthetic animals into tubes containing heparin at 15 min, 1, 2, 6, 10 and 24 hours after iv administration. Liver and brain tissues were collected immediately after animal death. The liver and brain tissues were excised and rinsed with cold saline to avoid blood residual. Upon collection, each sample was placed on ice and the blood samples were subsequently centrifuged (4° C., 11000 rpm, 5 min) to separate plasma. The obtained plasma, liver and brain tissue samples were stored at −70° C. until LC-MS/MS analysis.
Two (2) female SD rats per group were dosed by po with 153 or 157. The rats were fasted overnight prior to dosing, with free access to water. Foods were withheld for 2 hours post-dose. Blood samples (>0.3 mL) were collected via aorta abdominalis in anaesthetic animals into tubes containing heparin at 30 min, 1, 2, 6, 10 and 24 hours after po administration.
To each sample, 30 μL IS-D (for blank samples, 20 μL acetonitrile:water (1:1) was added) and 300 μl acetonitrile was added. The sample mixture was vortexed for approximately 3 min. After centrifugation at 10000 rpm for 5 min at 4° C., 100 μL of the upper layer was transferred to a new tube and added 200 μL 0.4% formic acid in water (pH6.0). The mixture was vortexed for approximately 3 min before injected onto the LC/MS/MS system for analysis.
On the day of the assay, the frozen liver and brain samples were thawed unassisted at room temperature. An about 200 mg weighed sample of each thawed tissue was placed into a plastic tube with water (0.6 mL) to facilitate homogenization. Tissue processing was conducted using a homogenizer for approximately 1 min, 100 μl homogenate was transferred into a fresh Eppendorf tube. To each tube, 50 μL IS-D was added and mixed. Then 500 μl acetonitrile was added and the sample mixture was vortexed for approximately 3 min. After centrifugation at 10000 rpm for 5 min at 4° C., 100 μL of the upper layer was transferred to a new tube and evaporate the supernatant to dryness at 35° C. Reconstitute the residue with 200 μL of 0.4% formic acid in water (pH 6.0), and vortex for 3 min, submit for LC-MS/MS analysis.
Frozen unknown plasma samples were completely thawed at room temperature and vortexed thoroughly. With a pipette, 50 μL of plasma was transferred into a 2.0 mL Eppendorf tube. 50 μL of 0.1N HCl and 800 μL ethyl acetate were added into each sample. The sample mixture was vortexed for approximately 3 min.

[1] = female, Sprague-Dawley (SD), rat, in vivo, iv, 1.5 mg/kg, 157 in Brain, iv 1.5 mg/kg, Mean
[2] = female, Sprague-Dawley (SD), rat, in vivo, iv, 1.5 mg/kg, 157 in Brain, iv 1.5 mg/kg, rat 1
[3] = female, Sprague-Dawley (SD), rat, in vivo, iv, 1.5 mg/kg, 157 in Brain, iv 1.5 mg/kg, rat 2
[4] = female, Sprague-Dawley (SD), rat, in vivo, iv, 1.5 mg/kg, 157 in Liver, iv 1.5 mg/kg, Mean
[5] = female, Sprague-Dawley (SD), rat, in vivo, iv, 1.5 mg/kg, 157 in Liver, iv 1.5 mg/kg, rat 1
[6] = female, Sprague-Dawley (SD), rat, in vivo, iv, 1.5 mg/kg, 157 in Liver, iv 1.5 mg/kg, rat 2
[7] = female, Sprague-Dawley (SD), rat, in vivo, iv, 1.5 mg/kg, iv 1.5 mg/kg, Mean, read-out: 157 plasma concentration
[8] = female, Sprague-Dawley (SD), rat, in vivo, iv, 1.5 mg/kg, iv 1.5 mg/kg, Rat 1, read-out: 157 liver concentration
[9] = female, Sprague-Dawley (SD), rat, in vivo, iv, 1.5 mg/kg, iv 1.5 mg/kg, Rat 1, read-out: 157 plasma concentration
[10] = female, Sprague-Dawley (SD), rat, in vivo, iv, 1.5 mg/kg, iv 1.5 mg/kg, Rat 2, read-out: 157 liver concentration
[11] = female, Sprague-Dawley (SD), rat, in vivo, iv, 1.5 mg/kg, iv 1.5 mg/kg, Rat 2, read-out: 157 plasma concentration
[12] = female, Sprague-Dawley (SD), rat, in vivo, po, 1.5 mg/kg, 157 in plasma, PO 1.5 mg/kg, rat 2
[13] = female, Sprague-Dawley (SD), rat, in vivo, po, 1.5 mg/kg, PO 1.5 mg/kg, Mean, read-out: 157 plasma concentration
[14] = female, Sprague-Dawley (SD), rat, in vivo, po, 1.5 mg/kg, PO 1.5 mg/kg, Rat 1, read-out: 157 plasma concentration
[15] = female, Sprague-Dawley (SD), rat, in vivo, po, 1.5 mg/kg, PO 1.5 mg/kg, Rat 2, read-out: 157 plasma concentration

## CCCCCCCOC(=O)C1C2CCC(O2)C1C(=O)N1CCN(C)CC1 (centres unmarked) [Compound 157, 3-(4-Methylpiperazine-1-carbonyl)-7-oxa-bicyclo[2,2,1]heptane-2-carboxylic acid heptyl ester]
female, SD, rat, in vivo, iv, 1.5 mg/kg, iv 1.5 mg/kg, Rat 2, read-out: 157 liver concentration
  concentration at 1 h: 17.6 ng/g
female, SD, rat, in vivo, po, 1.5 mg/kg, 157 po 1.5 mg/kg, read-out: AUC of 157 in plasma
  AUC: 3.2 ng·h/mL
female, SD, rat, in vivo, po, 1.5 mg/kg, 157 po 1.5 mg/kg, read-out: Cmax of 157 in plasma
  Cmax: 6.14 ng/mL
female, SD, rat, in vivo, 157 iv 1.5 mg/kg, read-out: AUClast of 157 in plasma
  AUC(0-t): 47.2 ng·h/mL
female, SD, rat, in vivo, 157 po vs iv 1.5 mg/kg, read-out: BA (bioavailability) of 157
  bioavailability: 6.98%
female, Sprague-Dawley (SD), in vivo, 157 in plasma, PO 1.5 mg/kg, rat 2
  Tmax: 30 min
female, Sprague-Dawley (SD), rat, in vivo, iv, 1.5 mg/kg, 157 in Brain, iv 1.5 mg/kg, Mean, read-out: Cmax
  Cmax: 60 ng/g
[1]
  MRT last: 18.8 min
  half-life: 9.72 min
female, Sprague-Dawley (SD), rat, in vivo, iv, 1.5 mg/kg, 157 in Brain, iv 1.5 mg/kg, rat 1, read-out: Cmax
  Cmax: 60 ng/g
[2]
  MRT last: 18.3 min
  half-life: 9.18 min
female, Sprague-Dawley (SD), rat, in vivo, iv, 1.5 mg/kg, 157 in Brain, iv 1.5 mg/kg, rat 2, read-out: Cmax
  Cmax: 60 ng/g
[3]
  MRT last: 19.4 min
  half-life: 10.2 min
female, Sprague-Dawley (SD), rat, in vivo, iv, 1.5 mg/kg, 157 in Liver, iv 1.5 mg/kg, Mean, read-out: Cmax
  Cmax: 297 ng/g
[4]
  MRT last: 35.3 min
  half-life: 48.8 min
female, Sprague-Dawley (SD), rat, in vivo, iv, 1.5 mg/kg, 157 in Liver, iv 1.5 mg/kg, rat 1, read-out: Cmax
  Cmax: 337 ng/g
[5]
  MRT last: 31.9 min
  half-life: 27.3 min
female, Sprague-Dawley (SD), rat, in vivo, iv, 1.5 mg/kg, 157 in Liver, iv 1.5 mg/kg, rat 2, read-out: Cmax
  Cmax: 257 ng/g
[6]
  MRT last: 38.8 min
  half-life: 70.2 min
[7]
  concentration at 0.25 h: 115 ng/mL
  concentration at 1 h: 3.12 ng/mL
  concentration at 2 h: 0.524 ng/mL
[8]
  concentration at 0.25 h: 337 ng/g
  concentration at 2 h: 6.4 ng/g
[9]
  concentration at 0.25 h: 116 ng/mL
  concentration at 1 h: 2.67 ng/mL
  concentration at 2 h: 0.491 ng/mL
[10]
  concentration at 0.25 h: 257 ng/g
  concentration at 2 h: 9.72 ng/g
[11]
  concentration at 0.25 h: 114 ng/mL
  concentration at 1 h: 3.57 ng/mL
  concentration at 2 h: 0.556 ng/mL
female, Sprague-Dawley (SD), rat, in vivo, iv, 1.5 mg/kg, iv 1.5 mg/kg, Mean, read-out: 157 liver concentration
  concentration at 2 h: 8.06 ng/g
[12]
  AUC(0-inf): 3 ng·h/mL
  MRT last: 54.2 min
  half-life: 22.2 min
female, Sprague-Dawley (SD), rat, in vivo, po, 1.5 mg/kg, 157 in plasma, PO 1.5 mg/kg, rat 2, read-out: AUC
  AUC: 3 ng·h/mL
female, Sprague-Dawley (SD), rat, in vivo, po, 1.5 mg/kg, 157 in plasma, PO 1.5 mg/kg, rat 2, read-out: Cmax
  Cmax: 6.35 ng/mL
female, Sprague-Dawley (SD), rat, in vivo, po, 1.5 mg/kg, PO 1.5 mg/kg, Mean
  concentration at 0.5 h: 6.14 ng/mL
female, Sprague-Dawley (SD), rat, in vivo, po, 1.5 mg/kg, PO 1.5 mg/kg, Rat 1
  concentration at 0.5 h: 5.92 ng/mL
female, Sprague-Dawley (SD), rat, in vivo, po, 1.5 mg/kg, PO 1.5 mg/kg, Rat 2
  concentration at 0.5 h: 6.35 ng/mL
[13]
  concentration at 1 h: 1.37 ng/mL
  concentration at 2 h: 0.249 ng/mL
[14]
  concentration at 1 h: 1.48 ng/mL
  concentration at 2 h: 0.303 ng/mL
[15]
  concentration at 1 h: 1.26 ng/mL
  concentration at 2 h: 0.194 ng/mL
female, Sprague-Dawley (SD), rat, in vivo, 157 in Liver, iv 1.5 mg/kg, Mean
  Tmax: 15 min
Iv 1.5 mg/kg, Rat 1
  157 brain concentration: BLQ
Iv 1.5 mg/kg, Rat 2
  157 brain concentration: BLQ
Iv 1.5 mg/kg, 10 hr, Rat 2
  157 liver concentration: BLQ
